# Laboratory results from patent publication US20230129258A1, “HETEROTANDEM BICYCLIC PEPTIDE COMPLEXES” (BicycleTx Limited, priority 2019, published 2023).
# Where “and” joins values, the source holds several entries; their conditions need not be identical. Equal entries are not always repeated. Where two headings read alike, the source gives them in different places. Starred links: 1 amine or outer side, 2 acyl side, 3 side chain; linkers in the order of their positions; H or OH if unused. Positions of bridges follow the written chain, without caps; N, C: chain ends. Non-standard residues stand in square brackets, D forms with d. Chains are numbered I, II in the order given. X1 = O=C(CCOCCOCCOCCN(CCOCCOCCOCCn1cc(CCC(=O)[*:2])nn1)CCOCCOCCOCCn1cc(CCC(=O)[*:3])nn1)[*:1]; TATA = O=C(CC[*:1])N1CN(C(=O)CC[*:2])CN(C(=O)CC[*:3])C1; d1Nal = N[C@H](Cc1cccc2ccccc12)C(=O)O; Hyp = O=C(O)[C@@H]1C[C@@H](O)CN1; hArg = N=C(N)NCCCC[C@H](N)C(=O)O; tBuAla = CC(C)(C)C[C@H](N)C(=O)O; Nle = CCCC[C@H](N)C(=O)O
# What was measured:
# [1] = Pharmacokinetics in SD rats; type: in vivo; details: for half-life: iv
# How it was run: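 Male SD rats received the heterotandem Bicycle complex IV bolus or 15-min IV infusion in 25 mM histidine HCl, 10% sucrose pH 7. Serial K2-EDTA plasma analysed by LC-MS/MS (Orbitrap, positive mode); parameters from non-compartmental analysis.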
# [2] = molecular target: T1, mouse Nectin-4 (Mus musculus, UniProt Q8R007); assay: SPR direct binding to biotinylated Nectin-4 extracellular domain, mouse
# T1 sequence (Q8R007 31-347 limits assumed): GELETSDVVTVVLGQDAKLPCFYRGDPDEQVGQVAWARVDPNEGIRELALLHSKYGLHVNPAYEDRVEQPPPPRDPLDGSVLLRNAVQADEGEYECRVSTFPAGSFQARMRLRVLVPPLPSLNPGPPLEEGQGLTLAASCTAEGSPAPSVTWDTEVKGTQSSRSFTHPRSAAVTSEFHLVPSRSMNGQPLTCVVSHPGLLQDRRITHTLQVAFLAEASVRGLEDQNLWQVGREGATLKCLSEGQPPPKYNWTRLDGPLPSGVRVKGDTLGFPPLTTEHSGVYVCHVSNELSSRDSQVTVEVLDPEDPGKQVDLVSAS
# Text: The binding of BCY11863 to its primary target Nectin-4 and CD137 was characterized using surface plasmon resonance (SPR).
# [3] = Pharmacokinetic profiles in plasma and tumor tissue of CT26 #7 tumor bearing animals; type: in vivo, BALB/c mice; details: female, BALB/c, mouse, single iv 5 mg/kg
# Experimental: 6-8 weeks old BALB/c female mice were inoculated in the flank with 3×10^5 syngeneic Nectin-4 overexpressing CT26 cells (CT26 #7). When tumors reached around 400 mm^3 size on average, mice were randomized to receive a single intravenous dose of vehicle or 5 mg/kg BCY11863. A cohort of mice (n=3/timepoint) were sacrificed at 0.25, 0.5, 1, 2, 4, 8 and 24 h timepoints and harvested plasma and tumor tissue were analyzed for BCY11863. For tumor BCY11863 content analysis, tumor homogenate was prepared by homogenizing tumor tissue with 10 volumes (w:v) of homogenizing solution (MeOH/15 mM PBS (1:2, v:v)). 40 μL of sample was quenched with 200 μL IS1 and the mixture was mixed by vortexing for 10 min at 800 rpm and centrifuged for 15 min at 3220 g at 4° C. The supernatant was transfer to another clean 96-well plate and centrifuged for 5 min at 3220 g at 4° C., and 10.0 μL of supernatant was then injected for LC-MS/MS analysis using an Orbitrap Q Exactive in positive ion mode to determine the concentrations of analyte. For plasma BCY11863 content analysis, blood samples were collected in K2-EDTA tubes and immediately processed to plasma by centrifugation at approximately 4° C., 3000 g. 40 μL of plasma sample was quenched with 200 μL IS1 and the mixture was mixed by vortexing for 10 min at 800 rpm and centrifuged for 15 min at 3220 g at 4° C. […]
# [4] = molecular target: CD137 (Homo sapiens, UniProt Q07011); assay: CD137 reporter assay (Promega, Jurkat cells) in co-culture with EphA2-expressing tumor cells (A549, PC3, HT29); type: cell-based; set-up: host or cells: Jurkat reporter cells; details: for EC50: EC50 (nM); for EC50 / Emax: individual replicates
# Sequence of CD137 (Q07011 24-255): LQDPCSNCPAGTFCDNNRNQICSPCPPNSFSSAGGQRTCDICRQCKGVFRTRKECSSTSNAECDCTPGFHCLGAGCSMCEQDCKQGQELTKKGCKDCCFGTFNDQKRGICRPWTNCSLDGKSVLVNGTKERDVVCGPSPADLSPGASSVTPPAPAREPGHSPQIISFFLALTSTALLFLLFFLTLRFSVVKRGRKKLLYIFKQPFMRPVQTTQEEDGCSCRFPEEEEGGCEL
# How it was run: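 Readout is Bio-Glo luminescence after 6 h, 37° C co-culture of CD137 reporter Jurkat cells, target tumor cells (EphA2: A549, PC3, HT29; PD-L1: RKO) and titrated test articles in 1% FBS RPMI. EC50 (nM) and maximal induction come from fold change over untreated co-culture.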
compound,measurement,setting,value
CCCC[C@@H]1NC(=O)[C@H](Cc2ccc(O)cc2)NC(=O)[C@@H]2CCCN2C(=O)[C@H](CC(=O)O)NC(=O)[C@H](C)NC(=O)[C@H](Cc2ccccc2)NC(=O)[C@@H]2CSCCC(=O)N3CN(CN(C3)C(=O)CCSC[C@@H](C(=O)N[C@@H](C)C(N)=O)NC1=O)C(=O)CCSC[C@H](NC(C)=O)C(=O)N[C@@H](CC(C)(C)C)C(=O)N1CCC[C@H]1C(=O)N[C@@H](CCC(=O)O)C(=O)N[C@H](CCCCNC(=O)CCc1cn(CCOCCOCCOCCN(CCOCCOCCOCCC(=O)N[C@H]3CSCCC(=O)N4CN5CN(C4)C(=O)CCSC[C@H](NC(=O)[C@@H](CC(=O)O)NC(=O)[C@H](Cc4cccc6ccccc46)NC(=O)[C@@H]4CCCN4C3=O)C(=O)N[C@@H](CCSC)C(=O)N[C@@H](CCCCNC(=N)N)C(=O)N[C@@H](CC(=O)O)C(=O)N[C@@H](Cc3c[nH]c4ccccc34)C(=O)N[C@@H](CO)C(=O)N[C@@H]([C@@H](C)O)C(=O)N3CCC[C@H]3C(=O)N3C[C@H](O)C[C@H]3C(=O)N[C@@H](Cc3c[nH]c4ccccc34)C(=O)N[C@H](C(N)=O)CSCCC5=O)CCOCCOCCOCCn3cc(CCC(=O)NCCCC[C@H]4NC(=O)[C@H](CCC(=O)O)NC(=O)[C@@H]5CCCN5C(=O)[C@H](CC(C)(C)C)NC(=O)[C@@H](NC(C)=O)CSCCC(=O)N5CN6CN(C5)C(=O)CCSC[C@H](NC(=O)[C@H](Cc5ccc(O)cc5)NC(=O)[C@@H]5CCCN5C4=O)C(=O)N[C@@H](Cc4ccccc4)C(=O)N[C@@H](C)C(=O)N[C@@H](CC(=O)O)C(=O)N4CCC[C@H]4C(=O)N[C@@H](Cc4ccc(O)cc4)C(=O)N[C@@H](CCCC)C(=O)N[C@H](C(=O)N[C@@H](C)C(N)=O)CSCCC6=O)nn3)nn1)C(=O)N1CCC[C@H]1C(=O)N[C@@H](Cc1ccc(O)cc1)C(=O)N2 [BCY11863],Clp,[1]; 100 mg/kg BCY11863 IV,13 mL/min/kg
same,Vdss,[1]; 100 mg/kg BCY11863 IV,2.3 L/kg
same,fraction metabolized to BCY15155,"[1]; IV administration of BCY11863, 100 mg/kg",< 1%
same,bioavailability from SC dosing,[1]; SC dosing,high
same,clearance (in words),[1]; Table 6B,low clearance molecule
same,volume of distribution (in words),[1]; Table 6B,volume of distribution larger than plasma volume
same,conversion to BCY14602,"[1]; first 24 h, IV BCY11863, 100 mg/kg",No significant conversion
same,half-life,"[1]; male, SD, rat, plasma, 2 mg/kg, 2 mg/kg IV, n=3, read-out: terminal half life (converted)",4.1 h
same,clearance,"[1]; male, SD, rat, plasma, 2 mg/kg IV, n=3, read-out: clearance",7.7 mL/min/kg
same,Vd,"[1]; male, SD, rat, plasma, 2 mg/kg IV, n=3, read-out: volume of distribution at steady state (Vdss)",1.6 L/kg
same,clearance,"[1]; male, rat, plasma, SD rats, 1.9 mg/kg IV Bolus, read-out: Clp",7.7 mL/min/kg
same,Vd,"[1]; male, rat, plasma, SD rats, 1.9 mg/kg IV Bolus, read-out: Vdss",1.6 L/kg
same,clearance,"[1]; male, rat, plasma, SD rats, 3.2 mg/kg IV Inf (15 min), read-out: Clp",9.3 mL/min/kg
same,Vd,"[1]; male, rat, plasma, SD rats, 3.2 mg/kg IV Inf (15 min), read-out: Vdss",1.3 L/kg
same,bioavailability,"[1]; male, rat, plasma, SD rats, 6.3 mg/kg SC",95%
same,Kd,"[2]; KD, biotinylated ECD captured on streptavidin chip",5 to 27 nM
same,Kd,"[2]; SPR KD Mouse (25° C.), Direct Binding, biotinylated Nectin-4 extracellular domain, 25° C.",4.6 ± 2.1 nM
same,half-life,"[3]; plasma, read-out: plasma T1/2 (converted)",1.65 h
same,half-life,"[3]; tumor tissue, read-out: tumor T1/2 (converted)",13.4 h
"I: A[hArg]DC[Hyp]LVNPLCLEP[d1Nal]WTC-NH2 / II: Ac-C[tBuAla]PE[dK]PYCFADPY[Nle]CA-NH2 / III: Ac-C[tBuAla]PE[dK]PYCFADPY[Nle]CA-NH2 (linker I:4-I:11-I:18, II:1-II:8-II:15, III:1-III:8-III:15 via TATA; linker I:N-II:5-III:5 via X1) [BCY13272]",terminal half life,"[1]; 3.6 mg/kg IV infusion (15 min), n=3",2.9 h
same,half-life,"[1]; male, SD, rat, plasma, 3.6 mg/kg, 3.6 mg/kg IV infusion (15 min), n=3, read-out: terminal half life (converted)",2.5 h
same,half-life,"[1]; male, SD, rat, plasma, IV Inf (15 minutes), read-out: T1/2 (converted)",2.5 h
same,clearance,"[1]; male, SD, rat, plasma, 3.6 mg/kg IV infusion (15 min), n=3, read-out: clearance",7.5 mL/min/kg
same,Vd,"[1]; male, SD, rat, plasma, 3.6 mg/kg IV infusion (15 min), n=3, read-out: volume of distribution at steady state (Vdss)",1 L/kg
same,Vd,"[1]; male, SD, rat, plasma, IV Inf (15 minutes), read-out: Vdss",1 L/kg
same,EC50,[4]; co-culture with HT-29,0.567 nM and 0.187 nM and 0.205 nM
same,EC50,[4]; co-culture with PC-3,0.0805 nM and 0.0898 nM and 0.245 nM
same,CD137 activation in CD137 reporter assay,"[4]; FIG. 16, PC3, A549 and HT29",induces strong CD137 activation
same,Emax,[4]; co-culture with A549,25.7 fold and 23.6 fold and 30.2 fold
same,Emax,[4]; co-culture with HT-29,36.5 fold and 26 fold and 36.4 fold
same,Emax,[4]; co-culture with PC-3,44.2 fold and 53 fold and 44.5 fold
